# Several values for one entry are separate records, joined by “and”; a condition that tells them apart may be missing. Equal entries are not always repeated. Where two headings read alike, the source gives them in different places. Ends that are not written are not given here.
# Columns and labels:
# Format in all cases: cell-based, human
# A549 cells [1] = assay: Epic RWG biosensor DMR assay, agonist mode (primary profile), A549 cells; conditions: for DMR signal triggered by the ligand (primary profile), second ligand panel: FIG. 8: 40 μM pinacidil, 250 μg/ml poly(I:C), 8 μM PMA, 16 μM forskolin
# Description: All cell lines were obtained from American Type Cell Culture (Manassas, Va.). The cell culture medium was as follows: Dulbecco's modified Eagle's medium (DMEM) supplemented with 10% fetal bovine serum (FBS), 4.5 g/liter glucose, 2 mM glutamine, and antibiotics for human epidermoid carcinoma A431 and human lung carcinoma A549.
# Cells were typically grown using ˜1 to 2×10^4 cells per well at passage 3 to 15 suspended in 50 μl of the corresponding culture medium in the biosensor microplate, and were cultured at 37° C. under air/5% CO2 for ˜1 day. Except for A431, which was subject to ˜20 hr starvation through continuous culture in the serum-free DMEM, the other cell types were directly assayed without starvation. The confluency for all cells at the time of assays was ˜95% to 100%.
# Epic® wavelength interrogation system (Corning Inc., Corning, N.Y.) was used for whole cell sensing. This system consists of a temperature-control unit, an optical detection unit, and an on-board liquid handling unit with robotics. The detection unit is centered on integrated fiber optics, and enables kinetic measures of cellular responses with a time interval of ˜15 sec.
# The RWG biosensor is capable of detecting minute changes in local index of refraction near the sensor surface. Since the local index of refraction within a cell is a function of density and its distribution of biomass (e.g., proteins, molecular complexes), the biosensor exploits its evanescent wave to non-invasively detect ligand-induced dynamic mass redistribution in native cells. The evanescent wave extends into the cells and exponentially decays over distance, leading to a characteristic sensing volume of ˜150 nm, implying that any optical response mediated through the receptor activation only represents an average over the portion of the cell that the evanescent wave is sampling. The aggregation of many cellular events downstream the receptor activation determines the kinetics and amplitudes of a ligand-induced DMR.
# (§1) For biosensor cellular assays, molecule solutions were made by diluting the stored concentrated solutions with the HBSS (1× Hanks balanced salt solution, plus 20 mM Hepes, pH 7.1), and transferred into a 384 well polypropylene molecule storage plate to prepare a molecule source plate. Both molecule and marker source plates were made separately when a two-step assay was performed. In parallel, the cells were washed twice with the HBSS and maintained in 30 μl of the HBSS to prepare a cell assay plate. Both the cell assay plate and the molecule and marker source plate(s) were then incubated in the hotel of the reader system. After ˜1 hr of incubation the baseline wavelengths of all biosensors in the cell assay microplate were recorded and normalized to zero. Afterwards, a 2 to 10 minute continuous recording was carried out to establish a baseline, and to ensure that the cells reached a steady state. Cellular responses were then triggered by pipetting 10 μl of the marker solutions into the cell assay plate using the on-board liquid handler.
# First, a panel of ligands targeting GPCRs, each at 10 μM concentration, was chosen, and examined their actions on the A549 cells using DMR measurements with the Epic® system. The ligand panel included the four P2Y agonists ADP, […], UTP and UDP, the adenosine receptor agonist adenosine, the calcium sensing receptor agonist spermine, the histamine receptor agonist histamine, the adrenergic receptor agonist epinephrine, the free fatty acid receptor agonist elaidic acid, the lipoxin receptor agonist lipoxin A4, the bradykinin receptor agonist bradykinin, the adrenodullin receptor agonist adrenodullin, the PAR1 agonist SFLLR-amide, the angiotensin receptor agonist angiotensin, the neuropeptide Y receptor agonist neuropeptide Y, and the PAR2 agonist SLIGKV-amide.
# Next, a second ligand panel was chosen, and examined their actions on the A549 cells using DMR measures with the Epic® system.
# quiescent A431 cells = assay: Epic DMR two-step assay, antagonist mode: modulation of marker-induced DMR signals in quiescent A431 cells
# Description: as §1
# Next, the target specificity and signaling pathway of EGF was probed using a second set of assays.
# A first panel of markers was contacted with quiescent A431 cells at concentrations close to each of the marker's EC80 or EC100, and DMR measurements were obtained with and EPIC® system. This panel of markers was selected from a library of markers identified in A431 cells using Epic® cellular assays. This panel included epidermal growth factor (EGF), epinephrine, nicotinic acid, and histamine. Each of these markers leads to a wide array of cell signaling. […] Each DMR signal represents an averaged response of 4 replicates.
# A DMR index was generated for four ligand molecules. Quiescent A431 and proliferating A549 cells were separately exposed to the ligand molecules for about 1 hr to generate their primary profiles, followed by stimulation with each marker at a fixed concentration (as mentioned in FIGS. 7 and 8) for another 1 hr or so to generate secondary profiles of the molecule against the panels of markers in both types of cells. Next, one or more specific DMR parameters were chosen as a readout for plotting the DMR index of the molecule. For the pinacidil DMR response in A549, the amplitude of the N-DMR (i.e., the amplitude 30 min after stimulation) was chosen. For the poly(I:C) DMR response in A549, the amplitude of the late DMR (i.e., the amplitude 50 min after stimulation) was chosen. For the PMA response in A549, the late DMR amplitude (i.e., the amplitude 50 min after stimulation) was chosen.
# A549 cells [2] = assay: Epic DMR two-step assay, antagonist mode: modulation of marker-induced DMR signals in A549 cells; conditions: molecule 10 μM
# Description: as §1
# A second panel of markers was contacted with A549 cells at concentrations close to each of the marker's EC80 or EC100, and DMR measurements were obtained with and EPIC® system. This panel included poly(I:C), SLIGKV-amide, pinacidil, PMA, histamine, and forskolin. Each of these markers also leads to a wide array of cell signaling. Using Epic® cellular assays in conjunction with chemical biology and cell biology approach similar to the EGFR DMR mentioned above, we have determined the pathway(s) and network interaction(s) that is accounted for each marker-induced DMR signal in A549 cells. The main observations are summarized below. Poly(I:C) is an agonist for endogenous Toll-like receptor(s) in A549, whose activation leads to IKK pathway and AKT pathway. SLIGKV-amide is an agonist for endogenous protease activated receptor subtype 2 (PAR2) in A549, whose activation leads to Gq-, Gi- and G12/13-mediated signaling. Pinacidil is an opener for endogenous ATP-sensitive potassium (KATP) ion channel in A549, whose activation leads to Rho- and JAK-mediated signaling. PMA is an activator for protein kinase C (PKC), whose activation leads to PKC pathway and degranulation. Histamine is a natural agonist for endogenous histamine receptors (dominantly H1R, and possibly H3R), whose activation leads to dual signaling, possibly through Gq and Gi mediated signaling in A549. Forskolin is an activator for adenylyl cyclases, whose activation leads to cAMP-PKA pathway in A549. […] Each DMR signal represents an averaged response of 4 replicates.
# A DMR index was generated for four ligand molecules. Quiescent A431 and proliferating A549 cells were separately exposed to the ligand molecules for about 1 hr to generate their primary profiles, followed by stimulation with each marker at a fixed concentration (as mentioned in FIGS. 7 and 8) for another 1 hr or so to generate secondary profiles of the molecule against the panels of markers in both types of cells. Next, one or more specific DMR parameters were chosen as a readout for plotting the DMR index of the molecule. For the pinacidil DMR response in A549, the amplitude of the N-DMR (i.e., the amplitude 30 min after stimulation) was chosen. For the poly(I:C) DMR response in A549, the amplitude of the late DMR (i.e., the amplitude 50 min after stimulation) was chosen. For the PMA response in A549, the late DMR amplitude (i.e., the amplitude 50 min after stimulation) was chosen. For the SLIGKV-amide DMR response in A549, the P-DMR amplitude (i.e., the amplitude 20 min after stimulation) was chosen. For the forskolin response in A549 cells, the P-DMR amplitude (i.e., the amplitude 50 min after stimulation) was chosen. For the histamine response in A549, both the early DMR amplitude (i.e., amplitude 10 min after stimulation) and the late response (i.e., the amplitude 30 min after stimulation) were chosen. […]
# [3] = quiescent A431, ligand 10 μM, about 1 hr pretreatment, 32 nM EGF
compound,measurement,setting,value
"adrenodullin: adrenodullin receptor agonist (YRQSMNNFQGLRSFGCRFGTCTVQKLAHQIYQFTDKDKDNVAPRSKISPQGY; ends and bridges not checked; cysteine pairing not given here; UniProt P35318 95-146, looked up)",DMR signal triggered by the ligand (primary profile),"A549 cells [1]; A549 cells, ligand 10 μM",robust DMR signals
O=c1ccn([C@@H]2O[C@H](COP(=O)(O)OP(=O)(O)OP(=O)(O)O)[C@@H](O)[C@H]2O)c(=O)[nH]1 [UTP],DMR signal triggered by the ligand (primary profile),"A549 cells [1]; A549 cells, ligand 10 μM",robust DMR signals
O=c1ccn([C@@H]2O[C@H](COP(=O)(O)OP(=O)(O)O)[C@@H](O)[C@H]2O)c(=O)[nH]1 [UDP],DMR signal triggered by the ligand (primary profile),"A549 cells [1]; A549 cells, ligand 10 μM",robust DMR signals
neuropeptide Y,DMR signal triggered by the ligand (primary profile),"A549 cells [1]; A549 cells, ligand 10 μM",robust DMR signals
CNCCNS(=O)(=O)c1cccc2cnccc12 [H8],modulation of the epinephrine response,"quiescent A431 cells; A431, molecule 10 μM",less effective at attenuating
same,modulation of the histamine response,"quiescent A431 cells; A431, molecule 10 μM",less effective at attenuating
BML-265,modulation of the EGF-induced DMR signal,quiescent A431 cells; [3],almost completely blocked
Nc1ncnc2c1ncn2[C@@H]1O[C@H](COP(=O)(O)OP(=O)(O)O)[C@@H](O)[C@H]1O [ADP],DMR signal triggered by the ligand (primary profile),"A549 cells [1]; A549 cells, ligand 10 μM",robust DMR signals
CCCCC[C@H](O)/C=C/C=C\C=C\C=C\[C@@H](O)[C@@H](O)CCCC(=O)O [lipoxin A4],DMR signal triggered by the ligand (primary profile),"A549 cells [1]; A549 cells, ligand 10 μM",robust DMR signals
NCCCNCCCCNCCCN [spermine],DMR signal triggered by the ligand (primary profile),"A549 cells [1]; A549 cells, ligand 10 μM",robust DMR signals
NCCc1c[nH]cn1 [histamine],DMR signal triggered by the ligand (primary profile),"A549 cells [1]; A549 cells, ligand 10 μM",robust DMR signals
COc1cc2ncnc(Nc3cccc(Cl)c3)c2cc1OC [AG1478],modulation of the EGF-induced DMR signal,quiescent A431 cells; [3],almost completely blocked
CC(N/C(=N\C#N)Nc1ccncc1)C(C)(C)C (stereo not shown) [pinacidil],"DMR signal triggered by the ligand (primary profile), second ligand panel",A549 cells [1]; A549 cells,robust DMR signals
Nc1ncnc2c1ncn2[C@@H]1O[C@H](COP(=O)(O)OP(=O)(O)OP(=O)(O)O)[C@@H](O)[C@H]1O [AT],DMR signal triggered by the ligand (primary profile),"A549 cells [1]; A549 cells, ligand 10 μM",robust DMR signals
SFLLR-amide,DMR signal triggered by the ligand (primary profile),"A549 cells [1]; A549 cells, ligand 10 μM",robust DMR signals
CCCCCCCC/C=C/CCCCCCCC(=O)O [elaidic acid],DMR signal triggered by the ligand (primary profile),"A549 cells [1]; A549 cells, ligand 10 μM",robust DMR signals
poly(I:C),"DMR signal triggered by the ligand (primary profile), second ligand panel",A549 cells [1]; A549 cells,robust DMR signals
Nc1ncnc2c1ncn2[C@@H]1O[C@H](CO)[C@@H](O)[C@H]1O [adenosine],DMR signal triggered by the ligand (primary profile),"A549 cells [1]; A549 cells, ligand 10 μM",robust DMR signals
N#CC(=C(/N)Sc1ccccc1N)/C(C#N)=C(\N)Sc1ccccc1N [U0126],modulation of the EGF-induced DMR signal,quiescent A431 cells,significantly and selectively attenuated the N-DMR and the RP-DMR signals
SLIGKV-NH2,DMR signal triggered by the ligand (primary profile),"A549 cells [1]; A549 cells, ligand 10 μM",robust DMR signals
"CCCCCCCCCCCCCC(=O)O[C@@H]1[C@@H](C)[C@@]2(O)[C@@H](C=C(CO)C[C@]3(O)C(=O)C(C)=C[C@@H]23)[C@@H]2C(C)(C)[C@]12OC(C)=O [PMA, Phorbol 12-myristate 13-acetate]","DMR signal triggered by the ligand (primary profile), second ligand panel",A549 cells [1]; A549 cells,robust DMR signals
angiotensin,DMR signal triggered by the ligand (primary profile),"A549 cells [1]; A549 cells, ligand 10 μM",robust DMR signals
CC(=O)c1c(O)c(C)c(O)c(Cc2c(O)c3c(c(C(=O)/C=C/c4ccccc4)c2O)OC(C)(C)C=C3)c1O [rottlerin],modulation of the EGF-induced DMR signal,quiescent A431 cells; [3],"specifically caused the truncation of the early P-DMR event, as well as part of the early N-DMR event"
CNC[C@H](O)c1ccc(O)c(O)c1 [epinephrine],DMR signal triggered by the ligand (primary profile),A549 cells [1],robust DMR signals
O=S(=O)(c1cccc2cnccc12)N1CCCNCC1 [HA1077],modulation of the PMA response,A549 cells [2],significantly potentiated
same,modulation of the histamine response,A549 cells [2],significantly potentiated
same,modulation of the pinacidil response,A549 cells [2],almost completely attenuated
same,modulation of PMA-induced DMR response (late DMR amplitude),"A549 cells [2]; 8 μM PMA, amplitude 50 min after stimulation",+36%
same,modulation of SLIGKV-amide-induced DMR response (P-DMR amplitude),"A549 cells [2]; 8 μM SLIGKV-amide, amplitude 20 min after stimulation",+22%
same,modulation of histamine-induced DMR response (early P-DMR),"A549 cells [2]; 10 μM histamine, amplitude 10 min after stimulation",+26%
same,modulation of histamine-induced DMR response (late P-DMR),"A549 cells [2]; 10 μM histamine, amplitude 30 min after stimulation",+55%
same,modulation of forskolin-induced DMR response (P-DMR amplitude),"A549 cells [2]; 16 μM forskolin, amplitude 50 min after stimulation",+18%
same,modulation of poly(I:C)-induced DMR response (late DMR amplitude),"A549 cells [2]; 250 μg/ml poly(I:C), amplitude 50 min after stimulation",+18%
same,modulation of pinacidil-induced DMR response (N-DMR amplitude),"A549 cells [2]; ~1 hr pretreatment, 40 μM pinacidil, amplitude 30 min after stimulation",−86% and −95%
